Test results reported in patent US4801616A, “Diphenylmethanone compounds and anti-inflammatory use thereof” (Eli Lilly and Company, priority 1986, dated 1989).

Tests used:
[1] = target: T1, fatty acid cyclooxygenase (Homo sapiens, UniProt P23219); assay: Fatty Acid Cyclooxygenase (FCO) Assay, inhibition of PGE2 formation by purified human platelet enzyme; assay type: biochemical; conditions: for IC50: human platelet microsomal enzyme, pH 8.0, 37° C.; for inhibition at 30 µg/mL: percent inhibition at 30 μg/ml
T1 construct: The solubilized fatty acid cyclooxygenase was applied to a 440 ml electrofocusing column; from tissue; host or cells: human platelets: microsomes solubilized with Triton X-100, purified by electrofocusing and G-200 Sephadex
T1 sequence (P23219 24-599): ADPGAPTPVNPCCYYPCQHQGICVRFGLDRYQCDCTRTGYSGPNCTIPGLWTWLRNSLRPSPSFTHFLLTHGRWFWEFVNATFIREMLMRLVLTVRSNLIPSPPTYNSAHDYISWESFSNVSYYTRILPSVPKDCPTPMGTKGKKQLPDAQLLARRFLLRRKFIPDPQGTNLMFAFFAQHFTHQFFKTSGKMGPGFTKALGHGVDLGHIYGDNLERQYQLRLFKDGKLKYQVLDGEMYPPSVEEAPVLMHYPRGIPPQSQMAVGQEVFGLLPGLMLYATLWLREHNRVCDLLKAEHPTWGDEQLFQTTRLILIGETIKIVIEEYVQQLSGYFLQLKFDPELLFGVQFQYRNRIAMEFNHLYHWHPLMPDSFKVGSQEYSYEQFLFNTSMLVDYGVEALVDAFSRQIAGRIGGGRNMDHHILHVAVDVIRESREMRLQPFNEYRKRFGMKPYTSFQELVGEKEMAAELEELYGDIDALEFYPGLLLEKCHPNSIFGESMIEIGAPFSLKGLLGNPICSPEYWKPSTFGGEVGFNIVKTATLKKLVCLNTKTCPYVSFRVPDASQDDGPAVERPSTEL
Procedure: Fatty Acid Cyclooxygenase (FCO) Assay
Microsomes were prepared from 185 bags of human platelets (each bag containing the platelets from one pint of blood prepared using differential centrifugation procedures). The platelets from approximately 60 bags were prepared at one time. Platelet-rich plasma (500 g) was centrifuged at 10,000×g for 20 minutes, and the platelet pellet was suspended in 100 ml of 0.1M potassium phosphate buffer, pH 8.0, with a Teflon glass homogenizer and sonicated for 5.0 minutes with a Bronson Sonifier (Model 350) in a rosette flask cooled in ice water. Disrupted platelets were centrifuged 15 minutes at 10,000× g. The supernatant was centrifuged at 100,000× g for 90 minutes and the microsomal pellets were homogenized in 25 ml of 20% sucrose containing 1.0% Triton X-100 detergent. After 30 minutes at 4° C., the solubilized microsomes were centrifuged at 100,000× g for 60 minutes. The yellow supernatant was removed and stored at -70 ° C.
The solubilized fatty acid cyclooxygenase was applied to a 440 ml electrofocusing column (LKB-8012) containing 1% phisolytes (Brinkman Instruments, Westburgh, NY), pH 2-11, with the cathode at the top of the column. The enzyme was layered onto the column at the appropriate time so that its sucrose concentration was equal to that of the column gradient. This was accomplished by checking the gradient concentration periodically with a sucrose hand refractometer. Electrofocusing was carried out for 16 hours with an initial voltage of 400 V and a final voltage of 900-1,000 volts. Fractions were collected (20 ml) and assayed for PGE2 formation. Active peak fractions were pooled and concentrated by ultrafiltration (XM 100A) to a volume of 3-5 ml.
Active fractions from electrofocusing were applied to a G-200 Sephadex column (2 cm×46 cm) and eluted with 10 mM potassium phosphate buffer, pH 7.0, in 5 ml fractions. After assay, active fractions were poored and concentrated to 1.0 ml by ultrafiltration (XM 100A), and kept frozen at -70° C.
Enzyme activity was determined by assaying for PGE2 formation by preincubating the enzyme with 10 mmol/l imidazole phosphate buffer, pH 8.0, 2 mmol/l epinephrine, 2 mmol/l methemoglobin, and the test compound (30 μg/ml) in a total volume of 0.2 ml for one minute at 37° C. After preincubation, 5 mmol/l ^14 C-arachidonic acid were added and the mixture was incubated an additional 0.5 minutes at 37° C. The enzyme reaction was stopped by the addition of 2 μl of indomethacin (2 mg/ml) in alcohol.
The reaction mixture was spotted (50 μl) on a silica gel (LQ6D) plate and subjected to TLC. The solvent system consisted of chloroform-methanol-glacial acetic acid (90:5:5, v/v/v) and the relative mobilities were PGF2α =0.235, and PGE2 =0.47. The silica gel on the plate was scraped in 1 cm sections, suspended in 5 ml of the scintillation fluid [5.88 g of 2,5-diphenyloxazole and 118 mg of 1,4 -bis(5-phenyloxazol-2-yl)benzene] dissolved in 650 ml of toluene and 350 ml of Triton X-100) and the radioactivity was determined in an Isocap/300 liquid scintillation counter (Searle Analytic, Inc., Southfield, Mich.). Another 50 μl of the mixture was added to 10 ml of the Triton X-100 based scintillation fluid, and the radioactivity was determined so that the amount of radioactivity recovery from the TLC plate could be ascertained. PGE2 formation for each test compound was determined as a percent of control experiments wherein no test compound was added. Data is expressed in Table I either as the percent inhibition of formation of PGE2 at a test compound concentration of 30 μ g/ml, or as an IC50 for inhibition of PGE2 formation.

5-lipoxygenase = target: T2, 5-lipoxygenase (Cavia porcellus, UniProt A0A286X958); assay: 5-Lipoxygenase (5-LPO) Assay, inhibition of 5-HETE formation in PMNL sonicate supernatant; assay type: biochemical, guinea pig; conditions: for inhibition at 30 µg/mL: percent inhibition at 30 μg/ml
T2 construct: incubating 0.2 ml of the supernatant obtained from the PMNL sonicate with the test compound; from tissue; host or cells: casein-elicited guinea pig peritoneal polymorphonuclear leukocytes (PMNL, more than 95 percent of the cells), sonicated, 30,000 x g supernatant
T2 sequence (A0A286X958 1-674): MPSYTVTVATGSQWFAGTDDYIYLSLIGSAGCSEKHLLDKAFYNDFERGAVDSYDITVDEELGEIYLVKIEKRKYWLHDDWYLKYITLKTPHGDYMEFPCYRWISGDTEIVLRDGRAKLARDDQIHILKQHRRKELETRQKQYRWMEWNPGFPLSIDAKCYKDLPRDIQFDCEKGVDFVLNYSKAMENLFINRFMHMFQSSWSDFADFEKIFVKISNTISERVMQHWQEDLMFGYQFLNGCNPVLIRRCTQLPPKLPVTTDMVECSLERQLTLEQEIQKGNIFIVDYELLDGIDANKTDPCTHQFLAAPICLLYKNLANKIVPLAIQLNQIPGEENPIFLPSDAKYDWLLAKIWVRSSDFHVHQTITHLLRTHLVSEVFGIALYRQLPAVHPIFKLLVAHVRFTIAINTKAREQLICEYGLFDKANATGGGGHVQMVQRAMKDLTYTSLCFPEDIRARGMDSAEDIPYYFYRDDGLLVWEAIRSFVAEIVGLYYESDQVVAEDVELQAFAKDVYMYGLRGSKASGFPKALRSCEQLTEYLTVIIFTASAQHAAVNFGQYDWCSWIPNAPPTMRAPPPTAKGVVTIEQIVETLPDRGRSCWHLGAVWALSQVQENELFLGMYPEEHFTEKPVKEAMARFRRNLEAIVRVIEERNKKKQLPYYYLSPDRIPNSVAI
Procedure: 5-Lipoxygenase (5-LPO) Assay
Ten milliliters of a 2% casein solution were injected intraperitoneally into guinea pigs weighing 250-300 gm. After 16-18 hours, the guinea pigs were killed by suffocation in a carbon dioxide chamber. The peritoneal cavity was infused with 70 ml of saline and 40-50 ml of the fluid were recovered from the cavity. After centrifugation, cell pellets were washed twice in Hank's balanced salt solution (HBSS) without calcium ion.
The cells were then suspended in 5 ml of sodium phosphate buffer, pH 7.1 containing 1 mM EDTA, and 0.1% gelatin. About 20-30×10^7 cells were obtained from one guinea pig.
The PMNL suspension was disrupted by five 1/2 second pulse sonications at the setting of 3 in a Branson Sonifier, Model 350, equipped with a microtip. The sonicates were combined and centrifuged at 30,000× g for 10 minutes. The supernatant was kept frozen at -70° C. until use.
Enzyme activity was determined by assaying for 5-HETE formation by first incubating 0.2 ml of the supernatant obtained from the PMNL sonicate with the test compound, 1 mM CaCl2, 2 mM ATP, and 1 mM GSH for 5 minutes at 37° C. The mixture is treated with 5 μM ^14 C-arachidonicacid and incubated at 37° C. an additional 10 minutes. The enzyme reaction was then stopped by the addition of 10 μl of 1M citric acid and 10μl of an alcohol solution containing 20 mg/ml each of indomethacin and butylated hydroxyanisole (BHA). The reaction mixture was spotted (50 μl on a silica gel plate (Baker TLC plate S1250-PA-19C) and subjected to TLC in a solvent system of ethyl acetate/2,2,4-trimethylpentane/glacial acetic acid/water (90:50:20:100).
The radioactivity of the arachidonic acid and its metabolites (5-HETE and LTB4) was visualized from a developed x-ray film which had been exposed to the TLC plate 1-2 days. The amount of 5-HETE formed was quantitated by scraping the silica gel area corresponding to the spot on the x-ray film, and the radioactivity determined in a Isocap/300 liquid scintillation counter (Searle Analytic, Inc.).
The percent inhibition of the formation of 5-HETE was determined for each concentration of test compound tested as compared to a control experiment wherein no test compound was added. The concentration and percent inhibition values were plotted on semi log paper and the concentration in which formation of 5-HETE is inhibited by 50% (IC50) was determined by interpolation.

[2] = guinea pig PMNL sonicate supernatant, 37° C., 5 μM 14C-arachidonic acid

Compound | IC50 [1] [µM] | IC50 (5-lipoxygenase; [2]) [µM] | inhibition at 30 µg/mL [1] [%] | inhibition at 30 µg/mL (5-lipoxygenase) [%] | IC50 5-LPO (inhibition of 5-HETE formation) (5-lipoxygenase; [2]) [µg/mL]
CCCc1c(OC)ccc(C(=O)c2ccccc2O)c1OC [Example 2, (2,4-Dimethoxy-3-propylphenyl)(2-hydroxyphenyl)methanone] | 9.32 | 2.66 |  |  | 
CCCc1c(OCCCCCc2nnn[nH]2)ccc(C(=O)c2ccccc2O)c1O [Example 24, (2-Hydroxyphenyl)[2-hydroxy-3-propyl-4-([5-(1H-tetrazol-5-yl)pentyl]oxy)phenyl]methanone] |  | 29.2 |  |  | 
CCCc1c(OCCCCCCC#N)ccc(C(=O)c2ccccc2O)c1O [Example 14, 7-[3-Hydroxy-4-(2-hydroxybenzoyl)-2-propylphenoxy]heptanenitrile] |  | 0.524 | 37 |  | 
CCCc1c(OCc2ccc(-c3nnn[nH]3)cc2)ccc(C(=O)c2ccccc2O)c1O [Example 22, (2-Hydroxyphenyl)[2-hydroxy-3-propyl-4([4-(1H-tetrazol-5-yl)phenyl]methoxy)phenyl]methanone] | 32.5 | 9.29 |  |  | 
CCCc1c(OC)ccc(C(=O)c2ccccc2OC)c1OC [Example 1, (2,4-Dimethoxy-3-propylphenyl)(2-methoxyphenyl)methanone] | 17.5 | 0.954 |  |  | 
C=C(c1ccccc1OC)c1ccc(OCCCCC#N)c(CCC)c1OC [Example 20, 5-(3-Methoxy-4-[1-(2-methoxyphenyl)ethenyl]2-propylphenoxy)pentanenitrile] |  | 79.1 |  |  | 
CCCc1c(OCc2ccc(C#N)cc2)ccc(C(=O)c2ccccc2O)c1O [Example 17, 4-([3-Hydroxy-4-(2-hydroxybenzoyl)-2-propylphenoxy]methyl)benzonitrile] |  |  | 48 | 94 | 
CCCc1c(OCCCc2nnn[nH]2)ccc(C(=O)c2ccccc2O)c1O [Example 27, (2-Hydroxyphenyl)(2-hydroxy-3-propyl-4-[3-(1H-tetrazol-5-yl)propoxy]phenyl)methanone] |  | 10.5 | 15 |  | 
CCCc1c(O)ccc(C(=O)c2ccccc2Cl)c1O [Example 10, (2-Chlorophenyl)(2,4-dihydroxy-3-propylphenyl)methanone] |  | 17.2 | 100 |  | 
CCCc1c(OC)ccc(C(=O)c2ccccc2O)c1O [Example 3, (2-Hydroxy-4-methoxy-3-propylphenyl)(2-hydroxyphenyl)methanone] | 4.89 | 1.05 |  |  | 
(2,3-Dihydro-4-hydroxy-2-methyl-7-benzofuranyl)(2-hydroxyphenyl)methanone [Example 8] |  |  |  |  | 8
CCCc1c(OCCCCC#N)ccc(C(=O)c2ccccc2OC)c1OC [Example 19, 5-[3-Methoxy-4-(2-methoxybenzoyl)-2-propylphenoxy]pentanenitrile] |  | 26.2 | 9 |  | 
CCCc1c(OCCCCCC#N)ccc(C(=O)c2ccccc2O)c1O [Example 13, 6-[3-Hydroxy-4-(2-hydroxybenzoyl)-2-propylphenoxy]hexanenitrile] |  | 5.44 | 40 |  | 
CCCc1cc(C(=O)c2ccccc2O)c(O)c(CCC)c1O [Example 7, (2,4-Dihydroxy-3,5-dipropylphenyl)(2-hydroxyphenyl)methanone] | 17.5 | 63.6 |  |  | 
CCCc1c(OCc2nnn[nH]2)ccc(C(=O)c2ccccc2O)c1O [Example 21, (2-Hydroxyphenyl)[2-hydroxy-3-propyl-4-(1H-tetrazol-5-ylmethoxy)phenyl]methanone] |  |  | 0 | 0 | 
CCCc1c(OCCCCc2nnn(C)n2)ccc(C(=O)c2ccccc2OC)c1O [Example 32, (2-Hydroxy-4-[4-(2-methyl-2H-tetrazol-5yl)butoxy]-3-propylphenyl)(2-methoxyphenyl)methanone] |  | 0.471 |  |  | 
CCCc1c(OCCCCc2nnnn2C)ccc(C(=O)c2ccccc2OC)c1O [Example 33, (2-Hydroxy-4-[4-(1-methyl-1H-tetrazol-5-yl)butoxy]3-propylphenyl)(2-methoxyphenyl)methanone] |  | 0.707 | 0 |  | 
CCCc1c(OCCCCC#N)ccc(C(=O)c2ccccc2OC)c1O [Example 18, 5-[3-Hydroxy-4-(2-methoxybenzoyl)-2-propylphenoxy]pentanenitrile] |  | 21.8 | 15 |  | 
CCCc1c(OCCCCC(=O)N(CC)CC)ccc(C(=O)c2ccccc2OC)c1OC [Example 31, N,N-Diethyl-5-[3-methoxy-4-(2-methoxybenzoyl)-2-propylphenoxy]pentanamide] |  | 17.6 | < 5 |  | 
CCCc1c(OCCCCc2nnn[nH]2)ccc(C(=O)c2ccccc2OC)c1OC [Example 29, (2-Methoxyphenyl)(2-methoxy-3-propyl-4-[4-(1H-tetrazol-5-yl)butoxy]phenyl)methanone] |  | 14.1 | < 5 |  | 
